Assay results: patent publication US11117900B2 (Vertex Pharmaceuticals Incorporated, priority 2012, dated 2021)

The compounds below were run on HCT116 colorectal cancer cells (assay: Cisplatin sensitization assay (96 h MTS cell viability)). Settings: Cisplatin sensitization value.
Assay type: cell-based
How it was run: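 The MTS viability read, after 1 h with reagent, followed 96 h of co-treatment at 37° C. in 5% CO2. Both compound and cisplatin were titrated 2-fold from a 10 μM top final concentration in a complete concentration matrix on HCT116 cells. Scores +++/++/+ reflect cisplatin sensitization value ranges.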
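Further: compound concentration needed to lower the IC50 of Cisplatin alone by a set fold.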

Structure (SMILES)	Cisplatin Sensitization Assay
CN1CCOC2(CCN(c3c(F)cncc3NC(=O)c3c(N)nn4cc(F)cnc34)CC2)C1 [I-N-272, 2-amino-6-fluoro-N-(5-fluoro-4-(4-methyl-1-oxa-4,9-diazaspiro[5.5]undecan-9-yl)pyridin-3-yl)pyrazolo[1,5-a]pyrimidine-3-carboxamide]	+++ (Compounds with a Cisplatin sensitization value of <0.02 μM are marked with “+++.”)
Nc1nn2cc(F)cnc2c1C(=O)Nc1cncc(F)c1N1CCC(S(=O)(=O)N2CCN3CCC2CC3)CC1 [I-N-273, N-(4-(4-(1,4-diazabicyclo[3.2.2]nonan-4-ylsulfonyl)piperidin-1-yl)-5-fluoropyridin-3-yl)-2-amino-6-fluoropyrazolo[1,5-a]pyrimidine-3-carboxamide]	+++ (Compounds with a Cisplatin sensitization value of <0.02 μM are marked with “+++.”)
Nc1nn2cc(F)cnc2c1C(=O)Nc1cncc(F)c1N1CCN(C(=O)C2CCOC2)CC1 (stereo not drawn) [I-N-274, 2-amino-6-fluoro-N-(5-fluoro-4-(4-(tetrahydrofuran-3-carbonyl)piperazin-1-yl)pyridin-3-yl)pyrazolo[1,5-a]pyrimidine-3-carboxamide]	+++ (Compounds with a Cisplatin sensitization value of <0.02 μM are marked with “+++.”)
CC(=O)N1CCN(c2c(F)cncc2NC(=O)c2c(N)nn3cc(F)cnc23)CC1 [I-N-275, N-(4-(4-acetylpiperazin-1-yl)-5-fluoropyridin-3-yl)-2-amino-6-fluoropyrazolo[1,5-a]pyrimidine-3-carboxamide]	+++ (Compounds with a Cisplatin sensitization value of <0.02 μM are marked with “+++.”)
Nc1nn2cc(F)cnc2c1C(=O)Nc1cncc(F)c1N1CCN(C(=O)C2CC2)CC1 [I-N-276, 2-amino-N-(4-(4-(cyclopropanecarbonyl)piperazin-1-yl)-5-fluoropyridin-3-yl)-6-fluoropyrazolo[1,5-a]pyrimidine-3-carboxamide]	+++ (Compounds with a Cisplatin sensitization value of <0.02 μM are marked with “+++.”)
Nc1nn2cc(F)cnc2c1C(=O)Nc1cncc(F)c1N1CCN2C(=O)CCCC2C1 (stereo not drawn) [I-N-277, 2-amino-6-fluoro-N-(5-fluoro-4-(6-oxohexahydro-1H-pyrido[1,2-a]pyrazin-2(6H)-yl)pyridin-3-yl)pyrazolo[1,5-a]pyrimidine-3-carboxamide]	+++ (Compounds with a Cisplatin sensitization value of <0.02 μM are marked with “+++.”)
Nc1nn2cc(F)cnc2c1C(=O)Nc1cncc(F)c1N1CCN(C(=O)C2COC2)CC1 [I-N-278, 2-amino-6-fluoro-N-(5-fluoro-4-(4-(oxetane-3-carbonyl)piperazin-1-yl)pyridin-3-yl)pyrazolo[1,5-a]pyrimidine-3-carboxamide]	+++ (Compounds with a Cisplatin sensitization value of <0.02 μM are marked with “+++.”)
Nc1nn2cc(F)cnc2c1C(=O)Nc1cncc(F)c1N1CCN2C(=O)CCC[C@@H]2C1 [I-N-280, (R)-2-amino-6-fluoro-N-(5-fluoro-4-(6-oxohexahydro-1H-pyrido[1,2-a]pyrazin-2(6H)-yl)pyridin-3-yl)pyrazolo[1,5-a]pyrimidine-3-carboxamide]	+++ (Compounds with a Cisplatin sensitization value of <0.02 μM are marked with “+++.”)
Nc1nn2cc(F)cnc2c1C(=O)Nc1cncc(Cl)c1N1CCCC1 [I-N-281, 2-amino-N-(5-chloro-4-(pyrrolidin-1-yl)pyridin-3-yl)-6-fluoropyrazolo[1,5-a]pyrimidine-3-carboxamide]	+++ (Compounds with a Cisplatin sensitization value of <0.02 μM are marked with “+++.”)
COCC1CCN(c2ccncc2NC(=O)c2c(N)nn3cc(F)cnc23)CC1 [I-N-282, 2-amino-6-fluoro-N-(4-(4-(methoxymethyl)piperidin-1-yl)pyridin-3-yl)pyrazolo[1,5-a]pyrimidine-3-carboxamide]	+++ (Compounds with a Cisplatin sensitization value of <0.02 μM are marked with “+++.”)
Cc1cncn1-c1ccncc1NC(=O)c1c(N)nn2cc(F)cnc12 [I-N-283, 2-amino-6-fluoro-N-(4-(5-methyl-1H-imidazol-1-yl)pyridin-3-yl)pyrazolo[1,5-a]pyrimidine-3-carboxamide]	++ (Compounds with a Cisplatin sensitization value >0.02 μM but <0.2 μM are marked with “++.”)
Nc1nn2cc(F)cnc2c1C(=O)Nc1cncc(Cl)c1N1CCC(O)C1 (stereo not drawn) [I-N-284, 2-amino-N-(5-chloro-4-(3-hydroxypyrrolidin-1-yl)pyridin-3-yl)-6-fluoropyrazolo[1,5-a]pyrimidine-3-carboxamide]	+++ (Compounds with a Cisplatin sensitization value of <0.02 μM are marked with “+++.”)
N#C[C@@H]1CCN(c2c(Cl)cncc2NC(=O)c2c(N)nn3cc(F)cnc23)C1 [I-N-285, (R)-2-amino-N-(5-chloro-4-(3-cyanopyrrolidin-1-yl)pyridin-3-yl)-6-fluoropyrazolo[1,5-a]pyrimidine-3-carboxamide]	++ (Compounds with a Cisplatin sensitization value >0.02 μM but <0.2 μM are marked with “++.”)
CN1CC2CN(c3c(Cl)cncc3NC(=O)c3c(N)nn4cc(F)cnc34)CC2C1 (stereo not drawn) [I-N-286, 2-amino-N-(5-chloro-4-(5-methylhexahydropyrrolo[3,4-c]pyrrol-2(1H)-yl)pyridin-3-yl)-6-fluoropyrazolo[1,5-a]pyrimidine-3-carboxamide]	++ (Compounds with a Cisplatin sensitization value >0.02 μM but <0.2 μM are marked with “++.”)
CS(=O)(=O)C1CCN(c2c(Cl)cncc2NC(=O)c2c(N)nn3cc(F)cnc23)C1 (stereo not drawn) [I-N-287, 2-amino-N-(5-chloro-4-(3-(methylsulfonyl)pyrrolidin-1-yl)pyridin-3-yl)-6-fluoropyrazolo[1,5-a]pyrimidine-3-carboxamide]	+++ (Compounds with a Cisplatin sensitization value of <0.02 μM are marked with “+++.”)
Nc1nn2cc(F)cnc2c1C(=O)Nc1cncc(F)c1N1CCC(n2ccnc2)CC1 [I-N-288, N-(4-(4-(1H-imidazol-1-yl)piperidin-1-yl)-5-fluoropyridin-3-yl)-2-amino-6-fluoropyrazolo[1,5-a]pyrimidine-3-carboxamide]	+++ (Compounds with a Cisplatin sensitization value of <0.02 μM are marked with “+++.”)
CN1CCN(C(=O)C2CCCN(c3c(F)cncc3NC(=O)c3c(N)nn4cc(F)cnc34)C2)CC1 (stereo not drawn) [I-N-289, 2-amino-6-fluoro-N-(5-fluoro-4-(3-(4-methylpiperazine-1-carbonyl)piperidin-1-yl)pyridin-3-yl)pyrazolo[1,5-a]pyrimidine-3-carboxamide]	++ (Compounds with a Cisplatin sensitization value >0.02 μM but <0.2 μM are marked with “++.”)
CN(C)C(=O)C1CCCN(c2ccncc2NC(=O)c2c(N)nn3cc(F)cnc23)C1 (stereo not drawn) [I-N-290, 2-amino-N-(4-(3-(dimethylcarbamoyl)piperidin-1-yl)pyridin-3-yl)-6-fluoropyrazolo[1,5-a]pyrimidine-3-carboxamide]	++ (Compounds with a Cisplatin sensitization value >0.02 μM but <0.2 μM are marked with “++.”)
CN1CC[C@H](Oc2ccncc2NC(=O)c2c(N)nn3cc(F)cnc23)C1 [I-O-1, (S)-2-amino-6-fluoro-N-(4-((1-methylpyrrolidin-3-yl)oxy)pyridin-3-yl)pyrazolo[1,5-a]pyrimidine-3-carboxamide]	+++ (Compounds with a Cisplatin sensitization value of <0.02 μM are marked with “+++.”)
CN(C)Cc1ccc(Oc2ccncc2NC(=O)c2c(N)nn3cc(F)cnc23)cn1 [I-O-3, 2-amino-N-(4-((6-((dimethylamino)methyl)pyridin-3-yl)oxy)pyridin-3-yl)-6-fluoropyrazolo[1,5-a]pyrimidine-3-carboxamide]	++ (Compounds with a Cisplatin sensitization value >0.02 μM but <0.2 μM are marked with “++.”)
COc1ccncc1NC(=O)c1c(N)nn2cc(F)cnc12 [I-O-4, 2-amino-6-fluoro-N-(4-methoxypyridin-3-yl)pyrazolo[1,5-a]pyrimidine-3-carboxamide]	++ (Compounds with a Cisplatin sensitization value >0.02 μM but <0.2 μM are marked with “++.”)
Nc1nn2cc(F)cnc2c1C(=O)Nc1cnccc1O[C@H]1CN2CCC1CC2 [I-O-5, (R)-2-amino-6-fluoro-N-(4-(quinuclidin-3-yloxy)pyridin-3-yl)pyrazolo[1,5-a]pyrimidine-3-carboxamide]	+++ (Compounds with a Cisplatin sensitization value of <0.02 μM are marked with “+++.”)
Nc1nn2cc(F)cnc2c1C(=O)Nc1cnccc1Oc1cccnc1 [I-O-7, 2-amino-6-fluoro-N-(4-(pyridin-3-yloxy)pyridin-3-yl)pyrazolo[1,5-a]pyrimidine-3-carboxamide]	++ (Compounds with a Cisplatin sensitization value >0.02 μM but <0.2 μM are marked with “++.”)
Nc1nn2cc(F)cnc2c1C(=O)Nc1cnccc1OC1CCC(C(=O)O)CC1 (stereo not drawn) [I-O-8, 4-((3-(2-amino-6-fluoropyrazolo[1,5-a]pyrimidine-3-carboxamido)pyridin-4-yl)oxy)cyclohexanecarboxylic acid]	+ (Compounds with a Cisplatin sensitization value >0.2 μM but <5 μM are marked with “+.”)
Nc1nn2cc(F)cnc2c1C(=O)Nc1cnccc1O[C@H]1CCCN(C2COC2)C1 [I-O-9, (S)-2-amino-6-fluoro-N-(4-((1-(oxetan-3-yl)piperidin-3-yl)oxy)pyridin-3-yl)pyrazolo[1,5-a]pyrimidine-3-carboxamide]	++ (Compounds with a Cisplatin sensitization value >0.02 μM but <0.2 μM are marked with “++.”)
Nc1nn2cc(F)cnc2c1C(=O)Nc1cnccc1O[C@@H]1CN2CCC1CC2 [I-O-10, (S)-2-amino-6-fluoro-N-(4-(quinuclidin-3-yloxy)pyridin-3-yl)pyrazolo[1,5-a]pyrimidine-3-carboxamide]	+++ (Compounds with a Cisplatin sensitization value of <0.02 μM are marked with “+++.”)
Nc1nn2cc(F)cnc2c1C(=O)Nc1cnccc1OC1CCN(C2COC2)CC1 [I-O-11, 2-amino-6-fluoro-N-(4-((1-(oxetan-3-yl)piperidin-4-yl)oxy)pyridin-3-yl)pyrazolo[1,5-a]pyrimidine-3-carboxamide]	+++ (Compounds with a Cisplatin sensitization value of <0.02 μM are marked with “+++.”)
